How the values were obtained:
[1] = Oral availability in rat; assay type: ADME; conditions: in vivo
[2] = target: T1, Arginase-1 (Homo sapiens, UniProt P05089); assay: Inhibition of recombinant human Arg1 extracted from Escherichia coli incubated for 30 mins by Ellman's method
T1 sequence (P05089 whole entry): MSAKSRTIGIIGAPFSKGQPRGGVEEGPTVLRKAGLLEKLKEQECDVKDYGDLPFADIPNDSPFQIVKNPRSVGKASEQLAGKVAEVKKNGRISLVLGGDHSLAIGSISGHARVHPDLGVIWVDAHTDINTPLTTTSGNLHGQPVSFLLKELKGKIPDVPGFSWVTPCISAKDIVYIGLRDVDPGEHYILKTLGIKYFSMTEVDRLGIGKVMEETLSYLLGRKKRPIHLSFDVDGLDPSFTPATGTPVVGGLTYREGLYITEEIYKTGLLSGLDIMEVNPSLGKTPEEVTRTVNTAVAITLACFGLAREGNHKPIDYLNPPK

[3] = Prodrug conversion in rat assessed as oral bioavailability of (2S,3S)-2-amino-3-(aminomethyl)-6-boronohexanoic acid metabolite; assay type: ADME, organism-based; conditions: in vivo
[4] = target: T2, Arginase-2, mitochondrial (Homo sapiens, UniProt P78540); assay: Inhibition of recombinant human Arg2 extracted from Escherichia coli incubated for 30 mins by Ellman's method
T2 sequence (P78540 whole entry): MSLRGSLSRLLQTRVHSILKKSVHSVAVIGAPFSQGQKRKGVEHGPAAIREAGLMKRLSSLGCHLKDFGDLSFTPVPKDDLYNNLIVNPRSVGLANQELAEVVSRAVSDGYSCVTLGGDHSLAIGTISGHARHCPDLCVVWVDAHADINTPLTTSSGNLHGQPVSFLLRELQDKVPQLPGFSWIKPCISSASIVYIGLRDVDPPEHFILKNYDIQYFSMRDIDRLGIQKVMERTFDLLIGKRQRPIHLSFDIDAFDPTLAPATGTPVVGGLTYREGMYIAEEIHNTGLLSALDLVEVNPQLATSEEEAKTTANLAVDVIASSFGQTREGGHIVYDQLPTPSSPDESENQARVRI

[5] = target: T1, Arginase-1; assay: Inhibition of Arg1 (unknown origin)
[6] = target: T3, Arginase-1 (Homo sapiens) (UniProt P05089); assay: Potency index, ratio of ABH IC50 to test compound IC50 for recombinant human Arg1 extracted from Escherichia coli incubated for 30 mins by Ellman's method
T3 sequence (whole entry): T1 sequence (P05089 whole entry)

SMILES | bioavailability [1] [%] | IC50 [2] [µM] | F [3] [%] | IC50 [4] [µM] | further results
CC[C@H](C)[C@H](N)C(=O)NC[C@H](CCCB(O)O)[C@H](N)C(=O)O | 4.5 | 33 | 39 |  | 
C[C@H](N)C(=O)NC[C@@H](CCCB(O)O)[C@H](N)C(=O)O | 10 | 157 |  |  | 
COC[C@@H](CCCB(O)O)[C@H](N)C(=O)O |  | 10.9 |  | 18.7 | 
N[C@H](C(=O)O)[C@@H](CF)CCCB(O)O |  | 4.23 |  | 6.08 | 
N[C@H](C(=O)O)[C@H](CCCB(O)O)CN1CCCCC1 |  |  |  | 17.4 | 
CC(C)[C@H](N)C(=O)NC[C@H](CCCB(O)O)[C@H](N)C(=O)O | 8.3 | 43 | 41 |  | 
N[C@@H](CCCCB(O)O)C(=O)O |  |  |  |  | IC50 [5]: 0.47 µM
NC(=O)[C@@H](CCCB(O)O)[C@H](N)C(=O)O |  | > 100 |  | > 100 | 
NC(=O)[C@H](CCCB(O)O)[C@H](N)C(=O)O |  | 19.2 |  | 41.8 | 
N[C@H](C(=O)O)[C@H](CF)CCCB(O)O |  | 0.655 |  | 1.88 | 
NC[C@H](CCCB(O)O)[C@H](N)C(=O)O | 11 |  |  | 0.224 | 
CC(C)[C@H](N)C(=O)NC[C@@H](CCCB(O)O)[C@H](N)C(=O)O | 29 | 145 | 56 |  | 
C[C@H](N)C(=O)NC[C@H](CCCB(O)O)[C@H](N)C(=O)O | 5.1 | 12 | 55 |  | Ratio IC50 [6]: 40
CC(C)(C)[C@H](N)C(=O)NC[C@H](CCCB(O)O)[C@H](N)C(=O)O | 19 | 32 |  |  | 
NC[C@@H](CCCB(O)O)[C@H](N)C(=O)O | 17 |  |  |  | 
CNC(=O)[C@@H](CCCB(O)O)[C@H](N)C(=O)O |  | > 100 |  |  | 
CNC(=O)[C@H](CCCB(O)O)[C@H](N)C(=O)O |  | 34.2 |  | > 100 | 
N[C@H](C(=O)O)[C@@H](N)CCCB(O)O |  | 74 |  | 96.8 | 
CC[C@H](N)C(=O)NC[C@H](CCCB(O)O)[C@H](N)C(=O)O | 1.5 | 25 | 72 |  | 
NCC[C@@H](CCCB(O)O)[C@H](N)C(=O)O |  |  |  | 0.625 | 
CC(C)[C@H](N)C(=O)N[C@H](C(=O)O)[C@H](CN)CCCB(O)O |  |  | 31 |  | 
C[C@H](N)C(=O)N[C@H](C(=O)O)[C@@H](CN)CCCB(O)O |  |  | 16 |  | 
COC(=O)[C@@H](CCCB(O)O)[C@H](N)C(=O)O |  | > 100 |  | > 100 | 
COC[C@H](CCCB(O)O)[C@H](N)C(=O)O |  | 4.12 |  | 6.75 | 
C[C@H](N)C(=O)N[C@H](C(=O)O)[C@H](CN)CCCB(O)O |  | 68 | 66 |  | 
NC(=O)NC[C@@H](CCCB(O)O)[C@H](N)C(=O)O |  |  |  | 5.18 | 
N=C(N)NC[C@@H](CCCB(O)O)[C@H](N)C(=O)O |  | 0.22 |  | 0.534 | 
CNC[C@@H](CCCB(O)O)[C@H](N)C(=O)O |  |  |  | 1.93 | 
COC(=O)[C@H](CCCB(O)O)[C@H](N)C(=O)O |  | 18.5 |  | 51.9 | 
NCC(=O)NC[C@H](CCCB(O)O)[C@H](N)C(=O)O | 6.3 | 21 | 13 |  | 
